These results are taken from patent publication US20200369728A1, “PEPTIDOMIMETIC MACROCYCLES AND USES THEREOF” (Aileron Therapeutics, Inc., priority 2015, published 2020).

Bridge positions count the residues as written; N and C are the ends. Square brackets hold non-standard residues; d marks the D form. Peptide text beside a SMILES is read from it. R8 = C=CCCCCCC[C@@](C)(N)C(=O)O; S5 = C=CCCC[C@](C)(N)C(=O)O

One assay concerns Caspase 3. As to the kind of experiment: Caspase 3 detection assay in SJSA1 cells. Type of assay: cell-based. To be noted: SJSA1, 48 h, Caspase 3 activation over DMSO-treated cells.
For another assay, the system named is SJSA-1 cells. As to the kind of experiment: Cell lysis by peptidomimetic macrocycles (LDH release). The class given is cell-based. As to conditions: SJSA-1, 1 h. The procedure: SJSA-1 cells were plated out one day in advance in clear flat-bottom plates (Costar, catalog number 353072) at 7500 cells/well with 100 ul/well of growth media, leaving row H columns 10-12 empty for media alone. On the day of the assay, media was exchanged with RPMI 1% FBS media, 90 uL of media per well.
10 mM stock solutions of the peptidomimetic macrocycles were prepared in 100% DMSO. Peptidomimetic macrocycles were then diluted serially in 100% DMSO, and then further diluted 20-fold in sterile water to prepare working stock solutions in 5% DMSO/water of each peptidomimetic macrocycle at concentrations ranging from 500 μM to 62.5 μM.
10 μL of each compound was added to the 90 uL of SJSA-1 cells to yield final concentrations of 50 μM to 6.25 μM in 0.5% DMSO-containing media. The negative control (non-lytic) sample was 0.5% DMSO alone and positive control (lytic) samples include 10 μM Melittin and 1% Triton X-100.
Cell plates were incubated for 1 hour at 37° C. After the 1 hour incubation, the morphology of the cells is examined by microscope and then the plates were centrifuged at 1200 rpm for 5 minutes at room temperature. 40 μL of supernatant for each peptidomimetic macrocycle and control sample is transferred to clear assay plates. LDH release is measured using the LDH cytotoxicity assay kit from Caymen, catalog #1000882.

As for `CC(=O)N[C@@H](CC(C)C)C(=O)N[C@H](C(=O)N[C@@H](Cc1ccccc1)C(=O)N[C@]1(C)CCCCCCC=CCCC[C@@](C)(C(=O)N[C@@H](C)C(=O)N[C@@H](Cc2c[nH]cn2)C(=O)N[C@@H](Cc2ccccc2)C(=O)N[C@@H](C)C(N)=O)NC(=O)[C@H](CC(C)C)NC(=O)[C@H](C)NC(=O)[C@H](C)NC(=O)[C@H](Cc2c[nH]c3ccccc23)NC(=O)[C@H](Cc2ccc(O)cc2)NC(=O)[C@H](C)NC1=O)[C@@H](C)O` [compound 204] (Ac-LTF[R8]AYWAAL[S5]AHFA-NH2; staple 4-11), in the assay with Caspase 3, the “caspase 0.3 μM” value is 1, the “caspase 3 μM” value stood at 4, the “caspase 10 μM” value is 10 and the “caspase 30 μM” value is 10. For the same molecule, in the assay on SJSA-1 cells, the “6.25 μM % Lysed cells (1 h LDH)” value was determined as 4%, the “25 μM % Lysed cells (1 h LDH)” value was 2% and the “50 μM % Lysed cells (1 h LDH)” value is recorded as 0%.

`CC(=O)N[C@@H](CC(C)C)C(=O)N[C@H](C(=O)N[C@@H](Cc1ccccc1)C(=O)N[C@]1(C)CCCCCCC=CCCC[C@@](C)(C(=O)N[C@@H](CO)C(=O)N[C@H](C(=O)N[C@@H](C)C(N)=O)C(C)C)NC(=O)[C@H](CC(C)C)NC(=O)[C@H](CCC(N)=O)NC(=O)[C@H](C)NC(=O)[C@H](Cc2c[nH]c3ccccc23)NC(=O)[C@H](Cc2ccc(O)cc2)NC(=O)[C@H](C(C)C)NC1=O)[C@@H](C)O` (single isomer, unassigned) [compound 139]: in the assay with Caspase 3, the “caspase 0.3 μM” value came to 1, the “caspase 3 μM” value was 2, the “caspase 10 μM” value is recorded as 9 and the “caspase 30 μM” value is recorded as 18. Further, in the assay with SJSA-1 cells, the “6.25 μM % Lysed cells (1 h LDH)” value is reported as −2%, the “25 μM % Lysed cells (1 h LDH)” value is −1% and the “50 μM % Lysed cells (1 h LDH)” value is given as −1%.

Turning to `CC(=O)N[C@@H](CC(C)C)C(=O)N[C@H](C(=O)N[C@@H](Cc1ccccc1)C(=O)N[C@]1(C)CCCCCCC=CCCC[C@@](C)(C(=O)N[C@@H](CO)C(=O)N[C@H](C(=O)N[C@@H](CO)C(N)=O)C(C)C)NC(=O)[C@H](CC(C)C)NC(=O)[C@H](CCC(N)=O)NC(=O)[C@H](C)NC(=O)[C@H](Cc2c[nH]c3ccccc23)NC(=O)[C@H](Cc2ccc(O)cc2)NC(=O)[C@H](C(C)C)NC1=O)[C@@H](C)O` (single isomer, unassigned) [compound 142], in the assay on Caspase 3, the “caspase 0.3 μM” value is listed as 1, the “caspase 3 μM” value came to 2, the “caspase 10 μM” value is 15 and the “caspase 30 μM” value is on record as 20. In the assay on SJSA-1 cells, the “6.25 μM % Lysed cells (1 h LDH)” value was 1%, the “25 μM % Lysed cells (1 h LDH)” value is on record as 1% and the “50 μM % Lysed cells (1 h LDH)” value turned out to be 3%.

Turning to `CC(=O)N[C@@H](CC(C)C)C(=O)N[C@H](C(=O)N[C@@H](Cc1ccccc1)C(=O)N[C@]1(C)CCCCCCC=CCCC[C@@](C)(C(=O)N[C@@H](CO)C(=O)N[C@H](C(=O)NCC(N)=O)C(C)C)NC(=O)[C@H](CC(C)C)NC(=O)[C@H](CCC(N)=O)NC(=O)[C@H](C)NC(=O)[C@H](Cc2c[nH]c3ccccc23)NC(=O)[C@H](Cc2ccc(O)cc2)NC(=O)[C@H](C)NC1=O)[C@@H](C)O` [compound 123] (Ac-LTF[R8]AYWAQL[S5]SVG-NH2; staple 4-11), in the assay with Caspase 3, the “caspase 0.3 μM” value is on record as 1, the “caspase 3 μM” value was found to be 1, the “caspase 10 μM” value was found to be 6 and the “caspase 30 μM” value was determined as 14. In addition, in the assay on SJSA-1 cells, the “6.25 μM % Lysed cells (1 h LDH)” value is listed as −2%, the “25 μM % Lysed cells (1 h LDH)” value turned out to be 5% and the “50 μM % Lysed cells (1 h LDH)” value amounted to 3%.

On to `CC[C@H](C)[C@H](NC(=O)[C@H](C)NC(=O)[C@H](C)NC(=O)[C@]1(C)CCCC=CCCCCCC[C@@](C)(NC(=O)[C@H](Cc2ccccc2)NC(=O)[C@@H](NC(=O)[C@H](CC(C)C)NC(C)=O)[C@@H](C)O)C(=O)N[C@@H](C)C(=O)N[C@@H](Cc2c[nH]cn2)C(=O)N[C@@H](Cc2c[nH]c3ccccc23)C(=O)N[C@@H](C)C(=O)N[C@@H](CCC(N)=O)C(=O)N[C@@H](CC(C)C)C(=O)N1)C(=O)N[C@H](C)C(N)=O` [compound 170] (Ac-LTF[R8]AHWAQL[S5]AAI[dA]-NH2; staple 4-11), for which, in the assay on Caspase 3, the “caspase 0.3 μM” value was determined as 1, the “caspase 3 μM” value stood at 1, the “caspase 10 μM” value worked out at 16 and the “caspase 30 μM” value was 20. For the same molecule, in the assay with SJSA-1 cells, the “6.25 μM % Lysed cells (1 h LDH)” value amounted to 2%, the “25 μM % Lysed cells (1 h LDH)” value came to 1% and the “50 μM % Lysed cells (1 h LDH)” value is reported as −1%.

Take `CC(=O)N[C@@H](CC(C)C)C(=O)N[C@H](C(=O)N[C@@H](Cc1ccccc1)C(=O)N[C@]1(C)CCCCCCC=CCCC[C@@](C)(C(=O)N[C@@H](C)C(=O)N[C@@H](Cc2c[nH]cn2)C(=O)N[C@@H](Cc2ccccc2)C(=O)N[C@@H](C)C(N)=O)NC(=O)[C@H](CC(C)C)NC(=O)[C@H](CCC(N)=O)NC(=O)[C@H](C)NC(=O)[C@H](Cc2c[nH]c3ccccc23)NC(=O)[C@H](Cc2c[nH]cn2)NC(=O)[C@H](C)NC1=O)[C@@H](C)O` [compound 183] (Ac-LTF[R8]AHWAQL[S5]AHFA-NH2; staple 4-11): in the assay on Caspase 3, the “caspase 0.3 μM” value is reported as 1, the “caspase 3 μM” value was found to be 1, the “caspase 10 μM” value is 4 and the “caspase 30 μM” value turned out to be 8. Further, in the assay with SJSA-1 cells, the “6.25 μM % Lysed cells (1 h LDH)” value turned out to be 2%, the “25 μM % Lysed cells (1 h LDH)” value is reported as 0% and the “50 μM % Lysed cells (1 h LDH)” value was found to be 3%.

Take `CCCCCC(=O)N[C@@H](CC(C)C)C(=O)N[C@H](C(=O)N[C@@H](Cc1ccccc1)C(=O)N[C@]1(C)CCCCCCC=CCCC[C@@](C)(C(=O)N[C@@H](CO)C(=O)N[C@@H](C)C(=O)N[C@@H](C)C(N)=O)NC(=O)[C@H](CCC(C)C)NC(=O)[C@H](CCC(N)=O)NC(=O)[C@H](C)NC(=O)[C@H](Cc2c[nH]c3ccccc23)NC(=O)[C@H](Cc2ccc(O)cc2)NC(=O)[C@H](CCC(=O)O)NC1=O)[C@@H](C)O` [compound 280]: in the assay with SJSA-1 cells, the “6.25 μM % Lysed cells (1 h LDH)” value is 5%, the “25 μM % Lysed cells (1 h LDH)” value is on record as 6% and the “50 μM % Lysed cells (1 h LDH)” value is given as 18%.

For `CC(C)CC[C@@H]1NC(=O)[C@H](CCC(N)=O)NC(=O)[C@H](C)NC(=O)[C@H](Cc2c[nH]c3ccccc23)NC(=O)[C@H](Cc2ccc(O)cc2)NC(=O)[C@H](CCC(=O)O)NC(=O)[C@](C)(NC(=O)[C@H](Cc2ccccc2)NC(=O)[C@@H](NC(=O)[C@H](CC(C)C)NC(=O)C(C)(C)C)[C@@H](C)O)CCCCCCC=CCCC[C@@](C)(C(=O)N[C@@H](CO)C(=O)N[C@@H](C)C(=O)N[C@@H](C)C(N)=O)NC1=O` [compound 284], in the assay on SJSA-1 cells, the “6.25 μM % Lysed cells (1 h LDH)” value turned out to be 5%, the “25 μM % Lysed cells (1 h LDH)” value is listed as 5% and the “50 μM % Lysed cells (1 h LDH)” value was found to be 6%.

With `CC(=O)N[C@@H](CC(C)C)C(=O)N[C@H](C(=O)N[C@@H](Cc1ccccc1)C(=O)N[C@]1(C)CCCCCCC=CCCC[C@@](C)(C(=O)N[C@@H](C)C(=O)N[C@@H](C)C(=O)NC(C)(C)C(=O)N[C@@H](C)C(N)=O)NC(=O)[C@H](CC(C)C)NC(=O)[C@H](CCC(N)=O)NC(=O)[C@H](C)NC(=O)[C@H](Cc2c[nH]c3ccccc23)NC(=O)[C@H](Cc2ccc(O)cc2)NC(=O)[C@H](C)NC1=O)[C@@H](C)O` (single isomer, unassigned) [compound 232], in the assay with SJSA-1 cells, the “6.25 μM % Lysed cells (1 h LDH)” value was determined as 6%, the “25 μM % Lysed cells (1 h LDH)” value is 5% and the “50 μM % Lysed cells (1 h LDH)” value is recorded as 5%.
